Experimental data published in patent US11242337B2, “Compounds useful for treating gastrointestinal tract disorders” (Ardelyx, Inc., priority 2017, dated 2022).

What was measured:
NHE3 [1] = biological target: T1, NHE3 (Homo sapiens, UniProt P48764); assay: Cell-based assay of NHE-3 activity (persistent inhibition), human; details: human Persistence, 60 min incubation then washout
T1 construct: expressed in transfected cells
T1 sequence (P48764 26-834): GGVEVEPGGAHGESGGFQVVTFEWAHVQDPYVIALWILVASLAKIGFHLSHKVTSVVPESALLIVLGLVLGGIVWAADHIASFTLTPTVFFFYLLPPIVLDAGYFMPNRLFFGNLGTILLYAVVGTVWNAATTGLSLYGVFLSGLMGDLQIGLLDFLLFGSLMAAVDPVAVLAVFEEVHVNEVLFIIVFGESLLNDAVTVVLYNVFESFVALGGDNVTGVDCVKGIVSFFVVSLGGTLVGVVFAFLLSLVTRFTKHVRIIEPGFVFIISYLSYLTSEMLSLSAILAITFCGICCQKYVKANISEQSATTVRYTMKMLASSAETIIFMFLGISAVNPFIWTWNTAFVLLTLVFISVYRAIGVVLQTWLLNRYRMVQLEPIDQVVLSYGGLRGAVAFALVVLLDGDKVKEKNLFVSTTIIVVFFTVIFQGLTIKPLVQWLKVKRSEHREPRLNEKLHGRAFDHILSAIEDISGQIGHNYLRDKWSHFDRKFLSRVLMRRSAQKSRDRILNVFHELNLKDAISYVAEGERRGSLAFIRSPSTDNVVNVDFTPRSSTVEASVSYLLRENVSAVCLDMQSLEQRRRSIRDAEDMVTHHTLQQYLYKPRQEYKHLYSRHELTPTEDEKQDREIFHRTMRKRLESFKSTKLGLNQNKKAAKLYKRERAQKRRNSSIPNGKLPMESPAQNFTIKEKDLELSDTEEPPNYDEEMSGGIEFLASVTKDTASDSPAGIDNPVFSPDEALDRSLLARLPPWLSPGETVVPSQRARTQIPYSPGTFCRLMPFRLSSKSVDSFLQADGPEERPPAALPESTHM
T1 sequence (Q99653 2-195 partner limits assumed): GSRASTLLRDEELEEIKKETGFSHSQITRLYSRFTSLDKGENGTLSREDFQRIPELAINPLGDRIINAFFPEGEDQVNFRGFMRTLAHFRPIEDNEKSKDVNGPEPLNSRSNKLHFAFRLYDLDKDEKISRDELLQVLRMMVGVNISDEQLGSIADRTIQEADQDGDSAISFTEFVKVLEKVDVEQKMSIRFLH
Summary of the method: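 PS120 fibroblasts expressing human NHE3 with NHERF2 exposed to 0-30 μM compound for 60 min at RT, then washed out; cells acid-loaded by NH4Cl prepulse with BCECF-AM and Na+-free buffer. Na+-driven pH recovery started 10 min post-washout; initial rate of BCECF ratio change (FLIPR) taken as activity.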

NHE3 [2] = biological target: T1, NHE3; assay: Cell-based assay of NHE-3 activity (pre-incubation inhibition), human; details: human Preincubation; for pIC50: 0-30 μM test compound
Summary of the method: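 PS120 fibroblasts stably expressing human NHE3 and NHERF2, loaded 30 min at 37 °C with 5 μM BCECF-AM in NH4Cl buffer, then acidified 10 min at room temperature in Na+-free buffer with 0–30 μM compound. Initial rate of BCECF fluorescence ratio change (FLIPR) per minute taken as Na+/H+ activity.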

| SMILES | % inhibition (NHE3 [1]) | pIC50 (NHE3 [1]) | % inhibition (NHE3 [2]) | pIC50 (NHE3 [2]) |
| --- | --- | --- | --- | --- |
| Cc1cc(Cl)cc2c1C[C@H](N1CCC[C@@H](N)C1)[C@H]2Oc1ccc(S(=O)(=O)NCCOCCOCCNC(=O)NCCCCNC(=O)NCCOCCOCCNS(=O)(=O)c2ccc(O[C@H]3c4cc(Cl)cc(C)c4C[C@@H]3N3CCC[C@@H](N)C3)cc2)cc1 [Example 3, 3-[2-(2-[2-[(4-[[(1S,2S)-2-[(3R)-3-Aminopiperidin-1-yl]-6-chloro-4-methyl-2,3-dihydro-1H-inden-1-yl]oxy]benzene)sulfonamido]ethoxy]ethoxy)ethyl]-1-[4-([[2-(2-[2-[(4-[[(1S,2S)-2-[(3R)-3-aminopiperidin-1-yl]-6-chloro-4-methyl-2,3-dihydro-1H-inden-1-yl]oxy]benzene)sulfonamido]ethoxy]ethoxy)ethyl]carbamoyl]amino)butyl]urea] | C (>70%) | – | C (>70%) | – |
| N#Cc1cc(Cl)cc2c1C[C@H](N1CCC[C@@H](N)C1)[C@H]2Oc1ccc(S(=O)(=O)NCCOCCOCCNC(=O)NCCCCNC(=O)NCCOCCOCCNS(=O)(=O)c2ccc(O[C@H]3c4cc(Cl)cc(C#N)c4C[C@@H]3N3CCC[C@@H](N)C3)cc2)cc1 [Example 4, 3-[2-(2-[2-[(4-[[(1S,2S)-2-[(3R)-3-Aminopiperidin-1-yl]-6-chloro-4-cyano-2,3-dihydro-1H-inden-1-yl]oxy]benzene)sulfonamido]ethoxy]ethoxy)ethyl]-1-[4-([[2-(2-[2-[(4-[[(1S,2)-2-[(3R)-3-aminopiperidin-1-yl]-6-chloro-4-cyano-2,3-dihydro-1H-inden-1-yl]oxy]benzene)sulfonamido]ethoxy]ethoxy)ethyl]carbamoyl]amino)butyl]urea; bis(trifluoroacetic acid)] | B (40-70%) | – | B (40-70%) | – |
| Cc1cc(Cl)cc2c1C[C@H](N(C)C)[C@H]2Oc1ccc(S(=O)(=O)NCCOCCOCCNC(=O)NCCCCNC(=O)NCCOCCOCCNS(=O)(=O)c2ccc(O[C@H]3c4cc(Cl)cc(C)c4C[C@@H]3N(C)C)cc2)cc1 [Example 11] | C (>70%) | C (NHE3 pIC50 > 7) | C (>70%) | C (NHE3 pIC50 > 7) |

The remaining lines, values ahead:

| % inhibition (NHE3 [1]) | pIC50 (NHE3 [1]) | % inhibition (NHE3 [2]) | pIC50 (NHE3 [2]) | SMILES |
| --- | --- | --- | --- | --- |
| C (>70%) | C (NHE3 pIC50 > 7) | C (>70%) | C (NHE3 pIC50 > 7) | C[C@@H]1CN([C@H]2Cc3c(C#N)cc(Cl)cc3[C@@H]2Oc2ccc(S(=O)(=O)N[C@H]3CCN(CCOCCNC(=O)NCCCCNC(=O)NCCOCCN4CC[C@H](NS(=O)(=O)c5ccc(O[C@H]6c7cc(Cl)cc(C#N)c7C[C@@H]6N6C[C@@H](C)N[C@@H](C)C6)cc5)C4)C3)cc2)C[C@H](C)N1 [Example 136] |
| C (>70%) | C (NHE3 pIC50 > 7) | C (>70%) | C (NHE3 pIC50 > 7) | C[C@@H]1CN([C@H]2Cc3c(C#N)cc(Cl)cc3[C@@H]2Oc2ccc(S(=O)(=O)N[C@@H]3CCN(CCOCCNC(=O)NCCCCNC(=O)NCCOCCN4CC[C@@H](NS(=O)(=O)c5ccc(O[C@H]6c7cc(Cl)cc(C#N)c7C[C@@H]6N6C[C@@H](C)N[C@@H](C)C6)cc5)C4)C3)cc2)C[C@H](C)N1 [Example 137, 4-([(1S,2S)-6-Chloro-4-cyano-2-[(3S,5R)-3,5-dimethylpiperazin-7-yl]-2,3-dihydro-1H-inden-1-yl]oxy)-N—[(R)-1-(20-[(R)-3-([4-([(1S,2S)-6-chloro-4-cyano-2-[(3S,5R)-3,5-dimethylpiperazin-1-yl]-2,3-dihydro-1H-inden-1-yl]oxy)phenyl]sulfonamido)pyrrolidin-1-yl]-7,14-dioxo-3,18-dioxa-6,8,13,15-tetraazaicosyl)pyrrolidin-3-yl]benzenesulfonamide; bis(trifluoroacetic acid)] |
